Assay results: patent US9593084B2 (Parion Sciences, Inc., priority 2012, dated 2017)
Marks after values point to notes of the source that are not given here.

Columns and labels:
Sheep MCC = experiment: Mucociliary clearance (MCC) studies in sheep; assay type: in vivo
How it was run: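 MCC read-out: gamma-camera counts over right lung at 5-min intervals for one hour, expressed as 30-min slope, 1-h AUC or maximal clearance. Radiolabelled TSC inhaled 4 or 8 h after nebulized test agent (4 mL, optionally followed by HS) in intubated adult sheep.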

[1] = Plasma potassium levels in sheep of the MCC study; assay type: in vivo
Protocol: In these studies, adult sheep were restrained and nasally intubated with an endotracheal tube. Aerosolized test articles were administered over 10-15 minutes to sheep. Radiolabeled ^99mTc-sulfur colloid (TSC, 3.1 mg/mL; containing approximately 20 mCi) was then administered at a specified time four or eight hours after test article. The radiolabeled aerosol was administered through the endotracheal tube for about 5 minutes. The sheep were then extubated, and total radioactive counts in the lung were measured every 5 minutes for a 1-hour observation period. The rate of radiolabel clearance from the lung is representative of the MCC rate in the animal. The advantage of this system is that it closely simulates the human lung environment. The model also allows for the collection of simultaneous PK/PD information through plasma and urine sampling over the test period. There are also several techniques to measure the drug concentrations on the airway surface during the MCC measurements. These include the collection of exhaled breath condensates or a filter paper method to obtain ASL via bronchoscopy.
The compound of Comparative Example 1 can be seen on page 15 of US 2005/0080093 and as Compound 2 on page 90 of WO 2008/031048, and as Compound 2 on pages 42-43 of WO 2008/031028. […] In order to evaluate this potential, it is beneficial to have MCC activity in vivo and not cause elevation of plasma potassium at the useful dose. One model to assess this is the sheep MCC model described below.

[2] = sheep, aerosol, 0.24 nmol/kg (3 μM), MCC at 4 h post-dose
[3] = sheep, aerosol, 0.24 nmol/kg (3 μM), MCC at 8 h post-dose

N=C(NCCCCc1ccc(C[C@H](N)C(=O)Nc2ccc(CCCN(C[C@H](O)[C@@H](O)[C@H](O)[C@H](O)CO)C[C@H](O)[C@@H](O)[C@H](O)[C@H](O)CO)cc2)c2ccccc12)NC(=O)c1nc(Cl)c(N)nc1N [Compound 33, 3,5-diamino-N—(N-(4-(4-((S)-2-amino-3-(4-(3-(bis((2S,3R,4R,5R)-2,3,4,5,6-pentahydroxyhexyl)amino)propyl)phenylamino)-3-oxopropyl)naphthalen-1-yl)butyl)carbamimidoyl)-6-chloropyrazine-2-carboxamide]
benefit to risk ratio (Sheep MCC; sheep MCC model): greater than 1000
effect on MCC compared to vehicle (Sheep MCC; sheep, 0.24 nmol/kg (3 μM), 4 h post-dose): enhanced MCC compared to vehicle control
Initial Slope (4.0-4.5 h) (Sheep MCC; sheep, 0.240 nmol/kg (30 μM), MCC at 4 h post-dose): 37.5* (4)
AUC (% CI × h) (Sheep MCC; sheep, 0.240 nmol/kg, MCC at 4 h post-dose): 17.4* (4) % CI × h
effect of hypertonic saline (HS) on the MCC effect (Sheep MCC; sheep, 7% HS dosed immediately following 0.24 nmol/kg, MCC eight hours after combined dosing): HS increased the effect of Compound 33 on MCC
duration of action on MCC vs. vehicle (Sheep MCC; sheep, 8 hours post dose): enhanced duration action of MCC vs. vehicle
AUC (% Cl-h) (Sheep MCC; [2]): 17.4* (4) % Cl-h
Initial Slope (4.0-4.5 h) (Sheep MCC; [2]): 37.5* (4)
AUC (% Cl-h) (Sheep MCC; [3]): 11.7* (4) % Cl-h
Initial Slope (8.0-8.5 h) (Sheep MCC; [3]): 25.8* (4)
MCC Highest Submaximal Dose (Sheep MCC; sheep, solution concentration given beside the dose): <0.24 nmol/kg (3 μM)
Therapeutic Ratio (Benefit/Risk) (Sheep MCC; sheep, top dose without plasma potassium elevation vs MCC highest submaximal dose): >100
effect on plasma potassium ([1]; sheep of the MCC study, at efficacious dose): free of potassium elevations
Therapeutic Index, times greater renal safety than Comparative Example 1 ([1]; sheep, versus Comparative Example 1): more than 1,000
